Among the data in patent publication US20080213172A1, “RADIOIMAGING MOIETIES COUPLED TO PEPTIDEASE-BINDING MOIETIES FOR IMAGING TISSUES AND ORGANS THAT EXPRESS PEPTIDASES” (Molecular Insight Pharmaceuticals, Inc., priority 2006, published 2008) are IC50 values, retold here.

Molecules are shown by their SMILES.

A word on the IC50: it is the concentration needed to halve the response being measured. Low readings indicate greater potency, high ones weaker potency.

This test deals with T1, purified rabbit lung ACE (Oryctolagus cuniculus, UniProt P12822).
T1 construct: The rabbit lung ACE (Sigma A6778) was reconstituted to a concentration of 1 unit/3 ml water; purchased Sigma A6778; host or cells: rabbit lung tissue
T1 sequence (P12822 34-1310): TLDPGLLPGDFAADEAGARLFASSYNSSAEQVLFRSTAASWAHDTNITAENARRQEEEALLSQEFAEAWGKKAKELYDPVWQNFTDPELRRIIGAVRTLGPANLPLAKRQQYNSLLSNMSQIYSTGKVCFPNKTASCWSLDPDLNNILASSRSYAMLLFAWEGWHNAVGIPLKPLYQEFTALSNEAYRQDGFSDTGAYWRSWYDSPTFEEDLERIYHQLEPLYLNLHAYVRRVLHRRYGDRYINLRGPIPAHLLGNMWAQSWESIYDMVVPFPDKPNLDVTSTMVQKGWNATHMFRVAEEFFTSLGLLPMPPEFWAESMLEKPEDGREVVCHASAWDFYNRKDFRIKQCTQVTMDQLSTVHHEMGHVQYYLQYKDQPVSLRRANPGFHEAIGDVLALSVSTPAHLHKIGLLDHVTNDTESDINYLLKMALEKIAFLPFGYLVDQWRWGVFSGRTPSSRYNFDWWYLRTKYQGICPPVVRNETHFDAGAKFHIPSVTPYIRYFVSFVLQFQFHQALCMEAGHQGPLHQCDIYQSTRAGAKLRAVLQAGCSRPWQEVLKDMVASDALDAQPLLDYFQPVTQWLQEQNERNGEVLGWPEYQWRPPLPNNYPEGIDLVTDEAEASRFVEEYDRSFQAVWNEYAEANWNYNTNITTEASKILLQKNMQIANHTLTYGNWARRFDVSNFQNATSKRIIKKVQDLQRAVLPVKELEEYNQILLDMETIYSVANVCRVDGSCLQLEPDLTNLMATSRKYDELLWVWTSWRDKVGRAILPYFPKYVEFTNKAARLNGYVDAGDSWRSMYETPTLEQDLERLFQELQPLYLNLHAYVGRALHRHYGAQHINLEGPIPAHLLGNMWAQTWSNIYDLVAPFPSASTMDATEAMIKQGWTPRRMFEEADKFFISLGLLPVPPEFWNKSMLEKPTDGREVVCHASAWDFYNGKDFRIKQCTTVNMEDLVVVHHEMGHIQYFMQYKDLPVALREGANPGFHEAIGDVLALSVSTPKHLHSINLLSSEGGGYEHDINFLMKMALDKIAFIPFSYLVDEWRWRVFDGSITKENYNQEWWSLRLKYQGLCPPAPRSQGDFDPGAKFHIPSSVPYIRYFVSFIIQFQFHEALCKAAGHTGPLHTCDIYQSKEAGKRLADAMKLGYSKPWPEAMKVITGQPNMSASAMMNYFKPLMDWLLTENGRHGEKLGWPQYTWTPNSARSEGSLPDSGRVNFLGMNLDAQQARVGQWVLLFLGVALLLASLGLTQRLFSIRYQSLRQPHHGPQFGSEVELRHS
Nature of the test: In vitro ACE activity colorimetric assay (Fujirebio ACE color kit). It is filed as biochemical. The protocol: ACE inhibition was evaluated in vitro against rabbit lung ACE using a colorimetric assay.
A range of concentrations of each compound was examined for the ability to inhibit ACE cleavage of p-hydroxybenzoyl-glycine L-histidyl-L-leucine using a commercially available in vitro biochemical assay according to manufacturer's specifications (Fujirebio). The source of ACE enzyme chosen for the analysis was purified rabbit lung ACE (Sigrna) at 3.3 mU/sample. Lisinopril was included in each experiment as a positive control.
Angiotensin converting enzyme (ACE) activity was determined using the ACE color kit (Fujirebio) according to the manufacturers instructions. ACE acts upon p-hydroxybenzoyl-glycyl-L-histidyl-L-leucine to produce p-hydroxybenzoyl-glycine, which is converted to p-hydroxybenzoic acid by hippuricase. Quinoneimine dye is produced by oxidation and condensation of the p-hydroxybenzoic acid and 4-aminoantipyrine using sodium metaperiodate. The concentration of quinoneimine dye is quantitatively measured at its absorbance maximum of 505 nm. This assay was designed to compare the tissue and plasma specificity of rhenium-labeled ACE inhibitors in an ACE colorimetric assay.
Preparation of reagents: The ACE color kit was purchased from Fujirebio and the assay was conducted according to the manufacturer's instructions: reconstitute substrate with 5.6 ml of buffer solution, reconstitute blank with 5.6 ml of buffer solution for blank, reconstitute developer with 15.5 ml of stopper solution. The rabbit lung ACE (Sigma A6778) was reconstituted to a concentration of 1 unit/3 ml water.
Substrate or blank solution (125 μL) was then added and incubated at 37° C. for 20 min. The developer solution was added and incubated 37° C. for 3 min. The activity of the test compounds was determined by measuring the absorbance at 505 nm on a spectrophotometer. The optimal amount of serum ACE (25 μL) and tissue ACE (3.3 mUnits) was used to determine the specificity of the rhenium-labled ACE inhibitors. Test compounds, including lisinopril and captopril, were prepared (50 μM stock) and serially diluted 10-fold for final concentrations ranging from 1 μM to 0.1 nM (10 μL/assay tube). The assay was conducted as described above.
In vitro ACE activity assay. The ability of test compounds to inhibit ACE activity was determined using the ACEcolor kit from Fujirebio, Inc. according to the manufacturer's instructions. Purified rabbit lung ACE. (3.3 mUnits, Sigrna Chemicals) was incubated for 20 min with the test compound at concentrations of 1 μM to 0.1 nM in a solution of substrate at 37° C. Developer solution was added and the samples were incubated for an additional 5 minutes at 37° C. before reading at 505 nm in a spectrophotometer.

Where [1] appears, read: free D(Cx)L ligands, rabbit lung ACE 3.3 mU/sample.

Turning to `O=C(CCCCN(Cc1ccccn1)Cc1ccccn1)NCCCCC(NC(CCc1ccccc1)C(=O)O)C(=O)N1CCCC1C(=O)O` (stereo not drawn) [D(C5)L], under setting [1], the IC50 was 42.8 nM.

Consider `O=C(CCCCCN(Cc1ccccn1)Cc1ccccn1)NCCCCC(NC(CCc1ccccc1)C(=O)O)C(=O)N1CCCC1C(=O)O` (stereo not drawn) [D(C6)L], for which it took 42.5 nM to reach half-maximal inhibition under setting [1] (IC50). Still for that read-out and setting: next, `O=C(CCCCCCCN(Cc1ccccn1)Cc1ccccn1)NCCCCC(NC(CCc1ccccc1)C(=O)O)C(=O)N1CCCC1C(=O)O` (stereo not drawn) [D(C8)L]: 19.5 nM; `O=C(CCCN(Cc1ccccn1)Cc1ccccn1)NCCCCC(NC(CCc1ccccc1)C(=O)O)C(=O)N1CCCC1C(=O)O` (stereo not drawn) [D(C4)L]: 83.3 nM. `NCCCC[C@H](N[C@@H](CCc1ccccc1)C(=O)O)C(=O)N1CCC[C@H]1C(=O)O` [Lisinopril, reference compound]: the IC50 runs as follows: (Re-complexes, purified rabbit lung ACE) 4 nM; under setting [1], 2.5 nM.
